Laboratory results published in publication PMC9569420 (Communications Biology, 2022).

Key:
[1] = target: T1, MSK1/RPS6KA5 (Homo sapiens, UniProt O75582); test: HotSpot kinase assay; format: biochemical; conditions: read-out: % Enzyme Activity (relative to DMSO controls)
T1 construct: purchased Reaction Biology Corporation

[2] = target: T2, HIPK2 (Homo sapiens, UniProt Q9H2X6); test: HotSpot kinase assay; format: biochemical; conditions: read-out: % Enzyme Activity (relative to DMSO controls)
T2 construct: purchased Reaction Biology Corporation

[3] = target: T3, RET (Homo sapiens, UniProt P07949); test: HotSpot kinase assay; format: biochemical; conditions: read-out: % Enzyme Activity (relative to DMSO controls)
T3 construct: purchased Reaction Biology Corporation

[4] = target: T4, JAK3 (Homo sapiens, UniProt P52333); test: HotSpot kinase assay; format: biochemical; conditions: read-out: % Enzyme Activity (relative to DMSO controls)
T4 construct: purchased Reaction Biology Corporation

[5] = target: T5, c-Src (Homo sapiens, UniProt P12931); test: biochemical
T5 construct: purchased Reaction Biology Corporation

[6] = target: T6, PKN1/PRK1 (Homo sapiens, UniProt Q16512); test: HotSpot kinase assay; format: biochemical; conditions: read-out: % Enzyme Activity (relative to DMSO controls)
T6 construct: purchased Reaction Biology Corporation

[7] = target: T7, CDK8/cyclin C (Homo sapiens, UniProt P49336); test: HotSpot kinase assay; format: biochemical; conditions: read-out: % Enzyme Activity (relative to DMSO controls)
T7 construct: purchased Reaction Biology Corporation

[8] = target: T8, ALK4/ACVR1B (Homo sapiens, UniProt P36896); test: HotSpot kinase assay; format: biochemical; conditions: read-out: % Enzyme Activity (relative to DMSO controls)
T8 construct: purchased Reaction Biology Corporation

[9] = target: T9, PKA (Homo sapiens, UniProt P17612); test: HotSpot kinase assay; format: biochemical
T9 construct: purchased Reaction Biology Corporation

[10] = target: T10, BMX/ETK (Homo sapiens, UniProt P51813); test: HotSpot kinase assay; format: biochemical; conditions: read-out: % Enzyme Activity (relative to DMSO controls)
T10 construct: purchased Reaction Biology Corporation

[11] = target: T11, CK1d (Homo sapiens, UniProt P48730); test: HotSpot kinase assay; format: biochemical; conditions: read-out: % Enzyme Activity (relative to DMSO controls)
T11 construct: purchased Reaction Biology Corporation

[12] = target: T12, PKCmu/PRKD1 (Homo sapiens, UniProt Q15139); test: HotSpot kinase assay; format: biochemical; conditions: read-out: % Enzyme Activity (relative to DMSO controls)
T12 construct: purchased Reaction Biology Corporation

[13] = target: T13, ZAP70 (Homo sapiens, UniProt P43403); test: HotSpot kinase assay; format: biochemical; conditions: read-out: % Enzyme Activity (relative to DMSO controls)
T13 construct: purchased Reaction Biology Corporation

[14] = target: T14, DCAMKL2 (Homo sapiens, UniProt Q8N568); test: HotSpot kinase assay; format: biochemical; conditions: read-out: % Enzyme Activity (relative to DMSO controls)
T14 construct: purchased Reaction Biology Corporation

[15] = target: T15, PKN3/PRK3 (Homo sapiens, UniProt Q6P5Z2); test: HotSpot kinase assay; format: biochemical; conditions: read-out: % Enzyme Activity (relative to DMSO controls)
T15 construct: purchased Reaction Biology Corporation

[16] = target: T16, PRKX (Homo sapiens, UniProt P51817); test: HotSpot kinase assay; format: biochemical; conditions: read-out: % Enzyme Activity (relative to DMSO controls)
T16 construct: purchased Reaction Biology Corporation

[17] = target: T17, BTK (Homo sapiens, UniProt Q06187); test: HotSpot kinase assay; format: biochemical; conditions: read-out: % Enzyme Activity (relative to DMSO controls)
T17 construct: purchased Reaction Biology Corporation

[18] = target: T18, PAK4 (Homo sapiens, UniProt O96013); test: HotSpot kinase assay; format: biochemical; conditions: read-out: % Enzyme Activity (relative to DMSO controls)
T18 construct: purchased Reaction Biology Corporation

[19] = target: T19, PDK1/PDPK1 (Homo sapiens, UniProt O15530); test: biochemical
T19 construct: purchased Reaction Biology Corporation
T19 sequence (O15530 1-556): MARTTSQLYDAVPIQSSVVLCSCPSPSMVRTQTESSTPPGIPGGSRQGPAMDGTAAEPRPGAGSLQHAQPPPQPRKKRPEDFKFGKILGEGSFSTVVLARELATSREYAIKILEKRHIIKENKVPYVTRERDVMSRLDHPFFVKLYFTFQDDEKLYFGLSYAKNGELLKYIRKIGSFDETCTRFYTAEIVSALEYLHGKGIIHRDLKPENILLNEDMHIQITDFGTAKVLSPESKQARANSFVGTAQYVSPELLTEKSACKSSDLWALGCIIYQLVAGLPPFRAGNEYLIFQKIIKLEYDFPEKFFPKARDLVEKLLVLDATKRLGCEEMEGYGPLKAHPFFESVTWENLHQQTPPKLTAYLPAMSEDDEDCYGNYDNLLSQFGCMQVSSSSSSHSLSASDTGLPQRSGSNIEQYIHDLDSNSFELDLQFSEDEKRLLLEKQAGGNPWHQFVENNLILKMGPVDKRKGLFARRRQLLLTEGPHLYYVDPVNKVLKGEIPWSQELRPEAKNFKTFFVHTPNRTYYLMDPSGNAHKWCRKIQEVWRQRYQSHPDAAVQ

[20] = target: T20, FAK/PTK2 (Homo sapiens, UniProt Q05397); test: HotSpot kinase assay; format: biochemical; conditions: read-out: % Enzyme Activity (relative to DMSO controls)
T20 construct: purchased Reaction Biology Corporation

[21] = target: T21, PBK/TOPK (Homo sapiens, UniProt Q96KB5); test: HotSpot kinase assay; format: biochemical; conditions: read-out: % Enzyme Activity (relative to DMSO controls)
T21 construct: purchased Reaction Biology Corporation

[22] = target: T22, LKB1 (Homo sapiens, UniProt Q15831); test: HotSpot kinase assay; format: biochemical; conditions: read-out: % Enzyme Activity (relative to DMSO controls)
T22 construct: purchased Reaction Biology Corporation

[23] = target: T23, PKCepsilon (Homo sapiens, UniProt Q02156); test: HotSpot kinase assay; format: biochemical; conditions: read-out: % Enzyme Activity (relative to DMSO controls)
T23 construct: purchased Reaction Biology Corporation

[24] = target: T24, MYO3A (Homo sapiens, UniProt Q8NEV4); test: HotSpot kinase assay; format: biochemical; conditions: read-out: % Enzyme Activity (relative to DMSO controls)
T24 construct: purchased Reaction Biology Corporation

[25] = target: T25, ALK (Homo sapiens, UniProt Q9UM73); test: HotSpot kinase assay; format: biochemical; conditions: read-out: % Enzyme Activity (relative to DMSO controls)
T25 construct: purchased Reaction Biology Corporation

[26] = target: T26, BRSK2 (Homo sapiens, UniProt Q8IWQ3); test: HotSpot kinase assay; format: biochemical; conditions: read-out: % Enzyme Activity (relative to DMSO controls)
T26 construct: purchased Reaction Biology Corporation

[27] = target: T27, SNARK/NUAK2 (Homo sapiens, UniProt Q9H093); test: HotSpot kinase assay; format: biochemical; conditions: read-out: % Enzyme Activity (relative to DMSO controls)
T27 construct: purchased Reaction Biology Corporation

[28] = target: T28, MLCK2/MYLK2 (Homo sapiens, UniProt Q9H1R3); test: HotSpot kinase assay; format: biochemical; conditions: read-out: % Enzyme Activity (relative to DMSO controls)
T28 construct: purchased Reaction Biology Corporation

[29] = target: T29, MEK1 (Homo sapiens, UniProt Q02750); test: HotSpot kinase assay; format: biochemical; conditions: read-out: % Enzyme Activity (relative to DMSO controls)
T29 construct: purchased Reaction Biology Corporation

[30] = target: T30, GCK/MAP4K2 (Homo sapiens, UniProt Q12851); test: HotSpot kinase assay; format: biochemical; conditions: read-out: % Enzyme Activity (relative to DMSO controls)
T30 construct: purchased Reaction Biology Corporation

[31] = target: T31, ULK2 (Homo sapiens, UniProt Q8IYT8); test: HotSpot kinase assay; format: biochemical; conditions: read-out: % Enzyme Activity (relative to DMSO controls)
T31 construct: purchased Reaction Biology Corporation

[32] = target: T32, Aurora A (Homo sapiens, UniProt O14965); test: HotSpot kinase assay; format: biochemical; conditions: read-out: % Enzyme Activity (relative to DMSO controls)
T32 construct: purchased Reaction Biology Corporation

[33] = target: T33, ALK6/BMPR1B (Homo sapiens, UniProt O00238); test: HotSpot kinase assay; format: biochemical; conditions: read-out: % Enzyme Activity (relative to DMSO controls)
T33 construct: purchased Reaction Biology Corporation

[34] = target: T34, FES/FPS (Homo sapiens, UniProt P07332); test: HotSpot kinase assay; format: biochemical; conditions: read-out: % Enzyme Activity (relative to DMSO controls)
T34 construct: purchased Reaction Biology Corporation

[35] = Supplementary Table 1, read-out: IC50 (Molar concentration)
[36] = read-out: % Enzyme Activity (relative to DMSO controls), 10µM

T5 sequence (P12931 whole entry): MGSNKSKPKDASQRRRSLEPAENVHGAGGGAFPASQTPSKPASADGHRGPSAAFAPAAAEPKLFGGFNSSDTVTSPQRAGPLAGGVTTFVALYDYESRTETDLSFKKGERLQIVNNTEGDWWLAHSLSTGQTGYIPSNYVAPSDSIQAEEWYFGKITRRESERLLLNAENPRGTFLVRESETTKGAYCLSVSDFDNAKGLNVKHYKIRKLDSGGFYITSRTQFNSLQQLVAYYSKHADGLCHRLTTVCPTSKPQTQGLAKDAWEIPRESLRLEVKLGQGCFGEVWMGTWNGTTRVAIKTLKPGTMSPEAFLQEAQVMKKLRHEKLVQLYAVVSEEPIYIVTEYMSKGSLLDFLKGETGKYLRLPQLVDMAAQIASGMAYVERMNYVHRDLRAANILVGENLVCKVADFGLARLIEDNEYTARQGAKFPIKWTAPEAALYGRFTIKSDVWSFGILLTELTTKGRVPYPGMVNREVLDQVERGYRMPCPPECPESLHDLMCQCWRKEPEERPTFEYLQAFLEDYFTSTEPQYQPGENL
T2 sequence (Q9H2X6 whole entry): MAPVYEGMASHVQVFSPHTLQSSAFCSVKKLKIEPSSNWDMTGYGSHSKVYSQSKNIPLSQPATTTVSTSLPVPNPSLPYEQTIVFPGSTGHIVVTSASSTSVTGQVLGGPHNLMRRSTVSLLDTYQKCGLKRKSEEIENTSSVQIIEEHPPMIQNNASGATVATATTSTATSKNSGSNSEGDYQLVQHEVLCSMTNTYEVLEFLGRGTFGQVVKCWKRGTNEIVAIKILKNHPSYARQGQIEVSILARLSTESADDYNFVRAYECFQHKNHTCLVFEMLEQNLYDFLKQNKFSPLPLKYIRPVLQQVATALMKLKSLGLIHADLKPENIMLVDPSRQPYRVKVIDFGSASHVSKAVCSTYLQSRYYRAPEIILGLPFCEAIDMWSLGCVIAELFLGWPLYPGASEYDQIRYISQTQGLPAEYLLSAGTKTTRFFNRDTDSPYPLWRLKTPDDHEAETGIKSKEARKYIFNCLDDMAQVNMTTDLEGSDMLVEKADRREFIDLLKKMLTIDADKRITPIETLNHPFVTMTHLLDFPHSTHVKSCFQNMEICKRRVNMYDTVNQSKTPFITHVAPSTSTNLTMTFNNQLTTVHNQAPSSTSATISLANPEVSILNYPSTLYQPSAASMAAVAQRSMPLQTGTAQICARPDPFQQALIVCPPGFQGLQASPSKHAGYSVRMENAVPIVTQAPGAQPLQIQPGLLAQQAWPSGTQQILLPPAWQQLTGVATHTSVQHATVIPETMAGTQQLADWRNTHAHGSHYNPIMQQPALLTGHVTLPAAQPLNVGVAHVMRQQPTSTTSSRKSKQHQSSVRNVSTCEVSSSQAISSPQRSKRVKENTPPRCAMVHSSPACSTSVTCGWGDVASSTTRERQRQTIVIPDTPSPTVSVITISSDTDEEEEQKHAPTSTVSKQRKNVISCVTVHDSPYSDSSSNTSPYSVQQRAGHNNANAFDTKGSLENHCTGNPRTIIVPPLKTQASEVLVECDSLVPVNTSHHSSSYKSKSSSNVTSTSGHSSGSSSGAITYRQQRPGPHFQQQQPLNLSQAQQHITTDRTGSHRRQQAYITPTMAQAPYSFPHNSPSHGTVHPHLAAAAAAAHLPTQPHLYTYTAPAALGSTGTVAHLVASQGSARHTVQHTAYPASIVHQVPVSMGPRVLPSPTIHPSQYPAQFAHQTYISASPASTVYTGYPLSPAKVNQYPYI
T23 sequence (Q02156 whole entry): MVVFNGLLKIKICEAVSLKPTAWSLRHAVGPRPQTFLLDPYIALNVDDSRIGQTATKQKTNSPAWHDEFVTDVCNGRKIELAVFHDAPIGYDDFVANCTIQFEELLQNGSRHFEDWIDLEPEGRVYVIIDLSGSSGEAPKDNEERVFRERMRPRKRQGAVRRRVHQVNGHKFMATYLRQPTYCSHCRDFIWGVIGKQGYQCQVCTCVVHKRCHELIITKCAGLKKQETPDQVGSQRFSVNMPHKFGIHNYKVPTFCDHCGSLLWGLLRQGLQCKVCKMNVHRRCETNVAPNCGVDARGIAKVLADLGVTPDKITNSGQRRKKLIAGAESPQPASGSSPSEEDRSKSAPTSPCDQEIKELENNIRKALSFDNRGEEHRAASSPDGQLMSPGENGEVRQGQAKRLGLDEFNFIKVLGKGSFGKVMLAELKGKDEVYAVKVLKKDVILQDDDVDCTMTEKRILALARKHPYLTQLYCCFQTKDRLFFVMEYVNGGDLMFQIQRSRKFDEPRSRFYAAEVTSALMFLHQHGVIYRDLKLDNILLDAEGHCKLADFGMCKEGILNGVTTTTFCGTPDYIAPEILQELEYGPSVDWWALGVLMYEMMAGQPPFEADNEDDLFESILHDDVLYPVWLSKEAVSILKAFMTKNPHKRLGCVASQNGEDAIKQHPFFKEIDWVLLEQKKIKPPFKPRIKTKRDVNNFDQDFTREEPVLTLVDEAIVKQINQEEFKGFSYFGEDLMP
T20 sequence (Q05397 whole entry): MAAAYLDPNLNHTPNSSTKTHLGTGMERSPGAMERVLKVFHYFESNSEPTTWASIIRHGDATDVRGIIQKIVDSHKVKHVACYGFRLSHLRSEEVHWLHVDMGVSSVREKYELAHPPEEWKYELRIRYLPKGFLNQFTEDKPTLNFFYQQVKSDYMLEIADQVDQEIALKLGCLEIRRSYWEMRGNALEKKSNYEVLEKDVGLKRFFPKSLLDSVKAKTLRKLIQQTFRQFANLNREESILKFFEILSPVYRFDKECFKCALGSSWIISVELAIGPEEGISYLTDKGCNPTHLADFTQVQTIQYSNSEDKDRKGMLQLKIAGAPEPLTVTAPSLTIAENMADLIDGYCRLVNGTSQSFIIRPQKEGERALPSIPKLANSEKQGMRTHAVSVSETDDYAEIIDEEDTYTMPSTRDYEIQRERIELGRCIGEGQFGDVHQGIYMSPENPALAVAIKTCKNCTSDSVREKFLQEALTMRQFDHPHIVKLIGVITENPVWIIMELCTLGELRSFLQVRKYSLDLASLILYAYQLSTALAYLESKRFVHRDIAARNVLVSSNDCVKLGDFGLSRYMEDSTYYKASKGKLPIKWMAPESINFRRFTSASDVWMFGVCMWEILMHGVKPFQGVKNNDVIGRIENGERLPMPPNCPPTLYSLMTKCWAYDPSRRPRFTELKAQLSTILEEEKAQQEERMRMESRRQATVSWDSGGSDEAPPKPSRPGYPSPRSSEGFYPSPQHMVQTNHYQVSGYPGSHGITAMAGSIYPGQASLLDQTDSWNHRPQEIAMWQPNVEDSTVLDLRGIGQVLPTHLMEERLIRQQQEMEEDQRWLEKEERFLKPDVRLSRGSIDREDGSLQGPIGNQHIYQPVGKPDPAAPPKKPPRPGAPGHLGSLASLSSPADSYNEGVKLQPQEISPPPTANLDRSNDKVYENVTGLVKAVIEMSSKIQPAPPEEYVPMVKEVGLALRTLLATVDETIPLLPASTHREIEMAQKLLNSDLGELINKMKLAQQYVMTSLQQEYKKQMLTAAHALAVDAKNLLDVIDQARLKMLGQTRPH
T8 sequence (P36896 24-505): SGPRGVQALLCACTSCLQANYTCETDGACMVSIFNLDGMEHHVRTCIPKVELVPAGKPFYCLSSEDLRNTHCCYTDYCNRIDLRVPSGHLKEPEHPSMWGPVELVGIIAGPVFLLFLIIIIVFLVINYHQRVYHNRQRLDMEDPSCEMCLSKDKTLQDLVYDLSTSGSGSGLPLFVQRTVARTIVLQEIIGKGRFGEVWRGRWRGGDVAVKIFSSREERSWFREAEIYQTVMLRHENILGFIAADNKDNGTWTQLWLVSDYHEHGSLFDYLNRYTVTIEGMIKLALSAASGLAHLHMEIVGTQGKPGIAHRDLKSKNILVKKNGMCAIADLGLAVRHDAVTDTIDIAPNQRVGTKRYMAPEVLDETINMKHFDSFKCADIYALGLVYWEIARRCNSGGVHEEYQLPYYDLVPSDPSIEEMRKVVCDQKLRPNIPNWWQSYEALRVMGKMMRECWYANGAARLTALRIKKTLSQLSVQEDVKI
T28 sequence (Q9H1R3 whole entry): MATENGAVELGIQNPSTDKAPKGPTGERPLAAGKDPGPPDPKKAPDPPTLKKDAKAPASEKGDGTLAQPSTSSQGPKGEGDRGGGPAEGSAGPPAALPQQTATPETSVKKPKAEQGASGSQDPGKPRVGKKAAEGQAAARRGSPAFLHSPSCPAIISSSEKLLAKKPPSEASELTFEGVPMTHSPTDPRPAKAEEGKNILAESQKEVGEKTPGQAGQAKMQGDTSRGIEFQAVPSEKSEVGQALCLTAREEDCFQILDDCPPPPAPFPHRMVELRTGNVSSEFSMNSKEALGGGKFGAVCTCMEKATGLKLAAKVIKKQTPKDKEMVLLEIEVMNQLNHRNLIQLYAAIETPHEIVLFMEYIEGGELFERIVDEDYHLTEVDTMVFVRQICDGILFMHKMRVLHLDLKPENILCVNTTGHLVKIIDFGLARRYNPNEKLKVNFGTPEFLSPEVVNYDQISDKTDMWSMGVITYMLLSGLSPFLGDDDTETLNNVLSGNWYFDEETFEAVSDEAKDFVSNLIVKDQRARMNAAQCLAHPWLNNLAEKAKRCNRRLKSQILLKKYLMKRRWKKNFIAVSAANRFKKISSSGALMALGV
T29 sequence (Q02750 whole entry): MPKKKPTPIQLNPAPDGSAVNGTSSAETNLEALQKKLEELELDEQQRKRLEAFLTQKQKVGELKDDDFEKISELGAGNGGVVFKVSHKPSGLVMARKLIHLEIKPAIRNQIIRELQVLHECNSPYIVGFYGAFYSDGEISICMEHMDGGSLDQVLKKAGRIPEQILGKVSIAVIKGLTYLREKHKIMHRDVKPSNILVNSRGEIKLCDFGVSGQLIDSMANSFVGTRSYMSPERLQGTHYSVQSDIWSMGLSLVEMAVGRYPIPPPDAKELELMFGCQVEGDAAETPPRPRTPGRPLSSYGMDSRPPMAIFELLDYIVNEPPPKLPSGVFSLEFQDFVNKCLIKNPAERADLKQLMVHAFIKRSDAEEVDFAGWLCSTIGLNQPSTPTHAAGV

With CO[C@@H]1[C@H](N(C)C(=O)CCC(=O)NCc2cn(CCCS(=O)(=O)O)nn2)C[C@H]2O[C@]1(C)n1c3ccccc3c3c4c(c5c6ccccc6n2c5c31)C(=O)NC4 [CIMSS] the remaining activity at 10 µM [1] was 1.53%, the remaining activity at 10 µM [2] was 17.5% and the remaining activity at 10 µM [3] was 2.1%. It also gave a remaining activity at 10 µM [4] of 0.97%, an IC50 [5, 35] of 11.9 nM and a remaining activity at 10 µM [5, 36] of 2.95%. The remaining activity at 10 µM [6] was 2.22%, the remaining activity at 10 µM [7] was 10.1% and the remaining activity at 10 µM [8] was 58.3%. The IC50 [9, 35] was 42.3 nM, the remaining activity at 10 µM [9, 36] was 6.32% and the remaining activity at 10 µM [10] was 2.19%. The remaining activity at 10 µM [11] was 106%, the remaining activity at 10 µM [12] was 30.3% and the remaining activity at 10 µM [13] was 13%. The remaining activity at 10 µM [14] was 87.7%, the remaining activity at 10 µM [15] was 20.2% and the remaining activity at 10 µM [16] was 9.56%. It also gave a remaining activity at 10 µM [17] of 6.64%, a remaining activity at 10 µM [18] of 7.78% and an IC50 ([19]; Supplementary Table 1, PDPK1, read-out: IC50 (Molar concentration)) of 0.278 nM. The remaining activity at 10 µM [19, 36] was 4.24%, the inhibition at 10 µM ([19]; read-out: inhibition of PDPK1) was over 75% and the remaining activity at 10 µM [20] was 15.5%. The remaining activity at 10 µM [21] was 69.8%, the remaining activity at 10 µM [22] was 38% and the remaining activity at 10 µM [23] was 1.11%. The remaining activity at 10 µM [24] was 6.46%, the remaining activity at 10 µM [25] was 4.12% and the remaining activity at 10 µM [26] was 1.66%. For the same compound, the remaining activity at 10 µM [27] was 2.16%, the remaining activity at 10 µM [28] was 27.3% and the remaining activity at 10 µM [29] was 76.7%. For the same compound, the remaining activity at 10 µM [30] was 4.74%, the remaining activity at 10 µM [31] was 13.6% and the remaining activity at 10 µM [32] was 1.92%. It also gave a remaining activity at 10 µM [33] of 88.3% and a remaining activity at 10 µM [34] of 2.77%.
